In US8933117B2, “Crystals of substituted cycloalkene derivatives” (Daiichi Sankyo Company, Limited, priority 2010, dated 2015):
Entries after “also recorded” stand apart in the source; their conditions may differ. Read-outs that look alike come from different tables or passages of the source.

Key:
[1] = Moisture absorption test (hygroscopicity); format: physicochemical; settings: 25° C.; for Hygroscopicity (in words): measurement humidity 10 to 95% RH; for Hygroscopicity, change in weight: relative humidity 10→80%
Method: A sample was weighed in a glass sample cup, and the weight thereof was measured under the following conditions.
Measuring device: DVS Advantage, manufactured by Surface Measurement System Ltd.
Measurement temperature: 25° C., Minimum exposure time: 15 min, Maximum exposure time: 120 min, Step transition condition: within 0.006 wt. %
The appearance of the sample at the time of completion of the measurement was confirmed.

Solubility test = format: physicochemical; settings: aqueous phosphate solution with 150 mM NaCl, pH around 7.5
Method: 150 mg of each of the compounds of Examples 1 and 2 and Comparative Example 1 was dissolved in 5 mL of an aqueous phosphate solution containing sodium chloride (containing 150 mM NaCl and 10 mM […]). After the resulting mixture was stirred for 30 minutes while measuring the pH of the mixture, a 0.5 mL portion of the resulting suspension was taken and filtered through a syringe filter. A 100 μL portion of the obtained filtrate was transferred into a 10-mL volumetric flask and diluted to 10 mL with an aqueous solution of 50% MeCN, whereby a sample solution was prepared. To the suspension, concentrated HCl was added dropwise to adjust the pH thereof to around 7.5.
Measurement was performed using HPLC under the following conditions.
HPLC system: Water's Alliance
Column: XTerra MS C18 3.5 μm, Column Size: 4.6×100 mm
Column Temp: 40° C., Flow Rate: 1.2 mL/min
Solvent A: 0.1% phosphoric acid in water, Solvent B: 0.1% phosphoric acid in MeCN

blood TNF-α level = assay: Suppressive effect on elevation of blood TNF-α level (in vivo); design: species or system Sprague Dawley rats; settings: test compound 0.3 mg/kg, femoral vein, 0.5 hours before LPS; rat plasma 2 hours after LPS
Method: The suppressive effect of the compound of the present invention on the elevation of blood TNF-α level was studied. A test for the elevation of blood TNF-α level was performed in accordance with the method of Parant et al. described in Journal of Leukocyte Biology, Vol. 47, page 164 (1990).
In the test, 3 to 4 male Sprague Dawley rats (8 to 9 weeks of age) were used for each group.
At 4 hours before the administration of LPS, muramyl dipeptide dissolved in physiological saline (1 mg/mL) was administered to each rat through the tail vein at a dose of 1 mL/kg. At 0.5 hours before the administration of LPS, the rats were anaesthetized with pentobarbital (40 mg/kg), and the compound of the present invention dissolved in a 5% dimethyl acetamide/95% polyethylene glycol 400 solution was administered to each rat through the right femoral vein at a dose of 1 mL/kg. To the control group, a 5% dimethyl acetamide/95% polyethylene glycol 400 solution was administered at a dose of 1 mL/kg. […] The plasma TNF-α level was determined using a TNF-α quantitative determination kit (BioSource International, Inc.). From the blood TNF-α level in the control group (X) and the blood TNF-α level in the group administered with the compound of the present invention (Y), the rate of suppression of TNF-α production was calculated according to the following calculation formula [II]. […]

[2] = pH 7
Method: (§1) The above flasks as such and the flasks covered with aluminum foil for light shielding as controls were placed in a light tester at 25° C. After one day, each solution was diluted to 10 mL with 50% MeCN. The concentration of each solution was calculated by performing HPLC under the same conditions as used in the above-described solubility test, and the change in concentration from the control was calculated.

Solution stability test = settings: light tester, versus light-shielded control
Method: as §1

[3] = system: TNF-α production in human monocytic cell line U937 stimulated with endotoxin; assay: Suppressive effect on production of TNF-α in cells stimulated with endotoxin (in vitro); format: cell-based; settings: concentration of test compound: 100 nM, LPS 30 ng/ml, 4.5 hours
Method: The rate of suppression of TNF-α production when human monocytic cell line U937 was stimulated with endotoxin was determined for the compound of the present invention. Specifically, to RPMI-1640 medium containing 10% (volume %) of inactivated newborn bovine serum, 12-O-tetradecanoylphorbol-13-acetate was added to give a final concentration of 30 ng/ml. U937 cells were suspended in the medium and plated into a 96-well culture plate (Sumilon) so that the number of cells per well/volume was 2×10^4/0.1 mL, and the culture plate was then incubated for 3 days at 37° C. in a carbon dioxide incubator with 5% CO2 and 100% humidity. After completion of the incubation, the culture supernatant was removed. […] By using a 384-well half area black plate (Greiner) and an HTRF quantitative determination kit manufactured by Cisbio International, the concentration of TNF-α in the culture supernatant was measured as time-resolved fluorescence by Discovery (Packard). From the measured value in the absence of LPS (X), the measured value in the absence of the compound of the present invention (Y), and the measured value in the presence of the compound of the present invention (Z), the rate of suppression of TNF-α production was obtained according to the following calculation formula [I]. […]

CCOC(=O)C1=CC2(CC[C@H]1S(=O)(=O)[N-]c1ccc(F)cc1Br)O[C@H](CO)[C@@H](CO)O2.[K+] [Example 2, Potassium(2-bromo-4-fluorophenyl){[(2R,3R,8R)-7-(ethoxycarbonyl)-2,3-bis(hydroxymethyl)-1,4-dioxaspiro[4.5]deca-6-en-8-yl]sulfonyl}azanide]
Hygroscopicity (in words) [1]: did not show hygroscopicity
Hygroscopicity, change in weight [1]: <0.1% (relative
Solubility (PBS pH 7.5) (Solubility test): 9.6 mg/ml
Rate of suppression of TNF-α production (blood TNF-α level): 81%
Solution stability (25° C., 1 day) [2]: 99.4%

CCOC(=O)C1=CC2(CC[C@H]1S(=O)(=O)[N-]c1ccc(F)cc1Cl)O[C@H](CO)[C@@H](CO)O2.[K+] [Example 1, Potassium(2-chloro-4-fluorophenyl){[(2R,3R,8R)-7-(ethoxycarbonyl)-2,3-bis(hydroxymethyl)-1,4-dioxaspiro[4.5]deca-6-en-8-yl]sulfonyl}azanide]
Hygroscopicity (in words) [1]: did not show hygroscopicity
Hygroscopicity, change in weight [1]: <0.1% (relative
Solubility (PBS pH 7.5) (Solubility test): 13.8 mg/ml
Solution stability (25° C., 1 day) (Solution stability test; PBS pH 6): 99.9%
Rate of suppression of TNF-α production (blood TNF-α level): 96%
Rate of suppression of TNF-α production [3]: 89%

CCOC(=O)C1=CC2(CC[C@H]1S(=O)(=O)Nc1ccc(F)cc1Cl)O[C@H](CO)[C@@H](CO)O2 (single isomer, unassigned) [Comparative Example, reference compound]
Hygroscopicity (in words) [1]: showed high hygroscopicity at every measurement humidity; also recorded: With hygroscopicity
Hygroscopicity, change in weight [1]: 2.6% (relative
Solubility (PBS pH 7.5) (Solubility test): low solubility
Solution stability (25° C., 1 day) (Solution stability test; McIlvaine buffer pH 8): 99.4%
